Experimental findings from patent publication US11453681B2, “Substituted eneoxindoles and uses thereof” (Gilead Sciences, Inc., priority 2019, dated 2022) are described below.

SMILES strings stand for the structures.

The target of this assay is human HPK1 (MAP4K1) (Homo sapiens (Human), UniProt Q92918). Put plainly: HPK1 IC50 Assay. The format is biochemical. Conditions: recombinant HPK1 kinase domain 0.15 nM, synthetic peptide substrate STK S1, 3 hours at 25° C., time-resolved fluorescence energy transfer; geometric mean of multiple experiments.
Chain of human HPK1 (MAP4K1) (Q92918 17-274): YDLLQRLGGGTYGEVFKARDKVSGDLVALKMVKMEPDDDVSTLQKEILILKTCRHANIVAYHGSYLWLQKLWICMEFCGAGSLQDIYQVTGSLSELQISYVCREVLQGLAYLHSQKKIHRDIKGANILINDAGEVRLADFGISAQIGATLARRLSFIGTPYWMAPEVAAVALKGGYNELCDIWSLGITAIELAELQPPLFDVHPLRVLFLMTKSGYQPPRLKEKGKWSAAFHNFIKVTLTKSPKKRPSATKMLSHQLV

As usually defined, the IC50 is the midpoint of a concentration-inhibition curve. For `Cc1c(-c2ccc3c(c2)/C(=C/c2c[nH]c4ccccc24)C(=O)N3)cnc2c1NCCO2` [Compound C70, (Z)-3-((1H-indol-3-yl)methylene)-5-(8-methyl-2,3-dihydro-1H-pyrido[2,3-b][1,4]oxazin-7-yl)indolin-2-one], the IC50 amounted to 0.42 nM. On to `O=C1Nc2ccc(-c3cnc4c(c3)NCCO4)cc2/C1=C/c1ncc[nH]1` [Compound C71, (Z)-3-((1H-imidazol-2-yl)methylene)-5-(2,3-dihydro-1H-pyrido[2,3-b][1,4]oxazin-7-yl)indolin-2-one], for which the IC50 came to 66.7 nM.

On to `Cc1c(-c2ccc3c(c2)/C(=C/c2ncc[nH]2)C(=O)N3)cnc2c1NCC1(CC1)O2` [Compound C72, (Z)-3-((1H-imidazol-2-yl)methylene)-5-(8′-methyl-1′,2′-dihydrospiro[cyclopropane-1,3′-pyrido[2,3-b][1,4]oxazin]-7′-yl)indolin-2-one], for which the IC50 is 2.13 nM.
